Active and inactive are the calls of the source. The rule behind the calls is not given here.
What was measured:
[1] = molecular target: T1, TRAF2 and NCK-interacting protein kinase (Homo sapiens, UniProt Q9UKE5); assay: Inhibition of human full length TNIK in HEK293 cells co-transfected with full length SMAD1 incubated for 2 hrs by ELISA; assay type: cell-based
Target sequence in this assay (Q9UKE5 whole entry): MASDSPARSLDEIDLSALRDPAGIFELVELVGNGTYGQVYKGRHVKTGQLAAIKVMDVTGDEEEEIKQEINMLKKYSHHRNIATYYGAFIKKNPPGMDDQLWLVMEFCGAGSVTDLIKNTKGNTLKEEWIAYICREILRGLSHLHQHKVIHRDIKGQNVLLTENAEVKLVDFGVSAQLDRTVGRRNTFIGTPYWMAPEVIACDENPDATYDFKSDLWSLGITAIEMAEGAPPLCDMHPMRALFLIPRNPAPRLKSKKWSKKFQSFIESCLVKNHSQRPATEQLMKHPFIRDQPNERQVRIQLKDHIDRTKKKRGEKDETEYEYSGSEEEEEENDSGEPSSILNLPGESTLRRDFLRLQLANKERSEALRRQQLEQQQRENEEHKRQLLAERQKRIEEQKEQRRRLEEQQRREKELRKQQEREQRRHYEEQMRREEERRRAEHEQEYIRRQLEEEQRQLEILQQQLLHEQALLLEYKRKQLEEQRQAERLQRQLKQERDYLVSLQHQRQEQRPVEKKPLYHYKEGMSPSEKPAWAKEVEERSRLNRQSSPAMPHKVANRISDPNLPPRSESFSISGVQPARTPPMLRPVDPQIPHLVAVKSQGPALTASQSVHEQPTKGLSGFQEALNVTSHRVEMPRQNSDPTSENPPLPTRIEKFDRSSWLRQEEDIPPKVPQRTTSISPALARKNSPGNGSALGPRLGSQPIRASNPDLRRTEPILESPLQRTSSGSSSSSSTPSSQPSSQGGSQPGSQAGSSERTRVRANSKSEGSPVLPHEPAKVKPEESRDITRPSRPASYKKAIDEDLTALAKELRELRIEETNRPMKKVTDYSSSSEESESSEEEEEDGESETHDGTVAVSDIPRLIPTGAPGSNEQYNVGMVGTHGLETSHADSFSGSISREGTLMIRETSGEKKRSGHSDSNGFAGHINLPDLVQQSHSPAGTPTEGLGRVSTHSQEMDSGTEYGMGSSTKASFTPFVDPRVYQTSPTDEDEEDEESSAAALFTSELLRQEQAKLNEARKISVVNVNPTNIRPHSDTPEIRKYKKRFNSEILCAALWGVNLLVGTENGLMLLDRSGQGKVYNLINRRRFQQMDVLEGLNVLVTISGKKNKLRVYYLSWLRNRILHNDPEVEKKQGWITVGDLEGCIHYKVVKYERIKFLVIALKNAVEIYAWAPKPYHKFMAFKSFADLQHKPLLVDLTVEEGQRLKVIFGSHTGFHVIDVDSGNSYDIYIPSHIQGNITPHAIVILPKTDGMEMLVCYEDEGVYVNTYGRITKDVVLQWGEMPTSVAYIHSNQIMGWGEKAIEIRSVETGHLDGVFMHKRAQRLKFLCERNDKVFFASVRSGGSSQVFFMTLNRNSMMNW

[2] = molecular target: T1, TRAF2 and NCK-interacting protein kinase; assay: Inhibition of human TNIK in human iPSC derived neuronal progenitor cells assessed as reduction in motif phosphorylation at 10 uM after 6 hrs with presence of okadaic acid by Western blot analysis
Target sequence in this assay (Q9UKE5 whole entry, looked up): as the sequence (Q9UKE5 whole entry) above

[3] = molecular target: T2, Misshapen-like kinase 1 (Homo sapiens, UniProt Q8N4C8); assay: Inhibition of human 6His-TEV-Avi-MINK1(1 to 328)-GNS expressed in baculovirus-infected sf21 cells using LRRKtide as substrate preincubated for 30 mins followed by substrate addition and measured after 75 to 90 mins by ADP-Glo Reagent based method
T2 sequence (Q8N4C8 whole entry): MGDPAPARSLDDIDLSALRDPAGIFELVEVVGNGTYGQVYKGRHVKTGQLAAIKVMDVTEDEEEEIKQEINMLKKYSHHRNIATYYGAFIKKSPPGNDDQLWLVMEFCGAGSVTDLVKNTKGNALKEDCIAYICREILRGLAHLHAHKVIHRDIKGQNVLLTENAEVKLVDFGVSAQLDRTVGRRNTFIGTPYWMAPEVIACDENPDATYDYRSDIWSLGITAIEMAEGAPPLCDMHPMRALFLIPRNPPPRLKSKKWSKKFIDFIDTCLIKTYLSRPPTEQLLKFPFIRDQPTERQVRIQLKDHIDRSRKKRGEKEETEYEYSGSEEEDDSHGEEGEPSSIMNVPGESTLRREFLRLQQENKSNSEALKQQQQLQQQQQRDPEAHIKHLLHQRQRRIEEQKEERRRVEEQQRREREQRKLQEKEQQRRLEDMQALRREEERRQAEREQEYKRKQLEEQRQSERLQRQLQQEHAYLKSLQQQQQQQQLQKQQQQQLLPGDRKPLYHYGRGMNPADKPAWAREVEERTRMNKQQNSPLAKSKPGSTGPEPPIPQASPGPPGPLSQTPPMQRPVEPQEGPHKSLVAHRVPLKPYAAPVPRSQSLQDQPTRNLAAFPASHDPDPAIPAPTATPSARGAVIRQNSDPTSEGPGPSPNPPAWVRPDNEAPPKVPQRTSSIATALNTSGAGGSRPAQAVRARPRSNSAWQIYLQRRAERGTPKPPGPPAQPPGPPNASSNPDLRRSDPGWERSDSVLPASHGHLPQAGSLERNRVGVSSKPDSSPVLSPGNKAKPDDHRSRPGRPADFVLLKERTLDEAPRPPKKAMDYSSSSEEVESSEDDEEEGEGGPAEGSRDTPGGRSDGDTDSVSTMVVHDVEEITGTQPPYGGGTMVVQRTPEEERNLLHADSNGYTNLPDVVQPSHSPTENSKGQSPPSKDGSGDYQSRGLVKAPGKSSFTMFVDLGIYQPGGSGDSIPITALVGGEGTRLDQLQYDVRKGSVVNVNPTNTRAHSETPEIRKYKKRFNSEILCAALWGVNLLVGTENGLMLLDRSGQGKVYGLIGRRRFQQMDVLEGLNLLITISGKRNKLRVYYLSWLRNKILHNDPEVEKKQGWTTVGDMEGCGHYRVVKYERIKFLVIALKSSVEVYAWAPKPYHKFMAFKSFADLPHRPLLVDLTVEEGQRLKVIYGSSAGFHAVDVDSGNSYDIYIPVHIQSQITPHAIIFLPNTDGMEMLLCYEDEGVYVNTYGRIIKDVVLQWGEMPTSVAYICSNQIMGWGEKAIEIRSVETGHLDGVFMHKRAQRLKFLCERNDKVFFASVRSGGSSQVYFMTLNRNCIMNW

[4] = molecular target: T1, TRAF2 and NCK-interacting protein kinase; assay: Inhibition of human 6His-TEV-TNIK(1 to 325) expressed in baculovirus-infected sf21 cells using LRRKtide as substrate preincubated for 30 mins followed by substrate addition and measured after 75 to 90 mins by ADP-Glo Reagent based method
Target sequence in this assay (Q9UKE5 whole entry): as the sequence (Q9UKE5 whole entry) above

[5] = molecular target: T3, Mitogen-activated protein kinase kinase kinase kinase 4 (Homo sapiens, UniProt O95819); assay: Inhibition of human 6His-TEV-SHM-MAP4K4(2 to 328)-GNS expressed in baculovirus-infected sf21 cells using LRRKtide as substrate preincubated for 30 mins followed by substrate addition and measured after 75 to 90 mins by ADP-Glo Reagent based method
Target sequence in this assay (O95819 whole entry): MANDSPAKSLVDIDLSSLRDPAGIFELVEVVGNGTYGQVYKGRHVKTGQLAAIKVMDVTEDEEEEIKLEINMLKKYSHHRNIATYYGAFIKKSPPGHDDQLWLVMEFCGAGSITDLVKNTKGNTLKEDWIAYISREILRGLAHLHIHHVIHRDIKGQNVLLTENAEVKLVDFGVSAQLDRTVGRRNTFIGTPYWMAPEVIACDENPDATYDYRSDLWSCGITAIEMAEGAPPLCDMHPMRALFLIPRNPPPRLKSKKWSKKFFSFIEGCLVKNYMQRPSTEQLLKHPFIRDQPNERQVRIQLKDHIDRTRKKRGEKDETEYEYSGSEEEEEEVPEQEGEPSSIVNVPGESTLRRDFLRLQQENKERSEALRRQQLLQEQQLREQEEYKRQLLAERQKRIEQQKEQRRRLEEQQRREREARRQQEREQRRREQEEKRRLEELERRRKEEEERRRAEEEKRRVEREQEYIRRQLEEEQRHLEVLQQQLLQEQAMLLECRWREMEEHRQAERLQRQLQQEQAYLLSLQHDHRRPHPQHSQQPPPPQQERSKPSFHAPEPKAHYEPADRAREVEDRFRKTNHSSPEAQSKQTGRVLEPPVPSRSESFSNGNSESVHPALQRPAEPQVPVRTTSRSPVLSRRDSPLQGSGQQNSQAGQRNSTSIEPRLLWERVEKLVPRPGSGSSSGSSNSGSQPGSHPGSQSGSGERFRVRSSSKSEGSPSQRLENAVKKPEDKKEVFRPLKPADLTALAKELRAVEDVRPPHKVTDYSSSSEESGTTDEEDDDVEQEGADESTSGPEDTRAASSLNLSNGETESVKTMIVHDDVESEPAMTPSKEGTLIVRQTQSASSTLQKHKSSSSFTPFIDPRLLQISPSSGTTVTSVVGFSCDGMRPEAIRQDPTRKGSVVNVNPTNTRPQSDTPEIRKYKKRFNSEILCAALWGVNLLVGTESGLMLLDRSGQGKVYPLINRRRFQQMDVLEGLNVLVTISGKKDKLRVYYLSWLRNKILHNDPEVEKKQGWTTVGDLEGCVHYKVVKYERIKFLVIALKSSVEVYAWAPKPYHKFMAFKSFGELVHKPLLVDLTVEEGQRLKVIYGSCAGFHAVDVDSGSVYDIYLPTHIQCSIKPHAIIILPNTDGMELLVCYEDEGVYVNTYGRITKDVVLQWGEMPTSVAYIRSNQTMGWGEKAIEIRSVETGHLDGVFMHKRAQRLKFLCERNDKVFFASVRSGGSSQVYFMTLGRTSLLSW

[6] = molecular target: T1, TRAF2 and NCK-interacting protein kinase; assay: Inhibition of human full length TNIK(1-1360)-G5-Avi-6His-Flag expressed in baculovirus-infected sf21 cells using His6-SMAD1 as substrate preincubated for 30 mins followed by substrate addition and measured after 120 mins by ADP-Glo Reagent based method
Target sequence in this assay (Q9UKE5 whole entry): as the sequence (Q9UKE5 whole entry) above

[7] = molecular target: T3, Mitogen-activated protein kinase kinase kinase kinase 4; assay: Inhibition of human full length MAP4K4(1-1239)-G5-Avi-6His-Flag expressed in baculovirus-infected sf21 cells using His6-SMAD1 as substrate preincubated for 30 mins followed by substrate addition and measured after 120 mins by ADP-Glo Reagent based method
Target sequence in this assay (O95819 whole entry): as the sequence (O95819 whole entry) above

[8] = molecular target: T2, Misshapen-like kinase 1; assay: Inhibition of human full length MINK1(1-1332)-G5-Avi-6His-Flag expressed in baculovirus-infected sf21 cells using His6-SMAD1 as substrate preincubated for 30 mins followed by substrate addition and measured after 120 mins by ADP-Glo Reagent based method
[9] = molecular target: T1, TRAF2 and NCK-interacting protein kinase; assay: Inhibition of human full length TNIK in HEK293 cells co-transfected with full length SMAD1 up to 30 uM incubated for 2 hrs by ELISA; assay type: cell-based
Target sequence in this assay (Q9UKE5 whole entry, looked up): as the sequence (Q9UKE5 whole entry) above

[10] = molecular target: T3, Mitogen-activated protein kinase kinase kinase kinase 4; assay: Inhibition of MAP4K4 (unknown origin) at 0.1 uM relative to control
[11] = molecular target: AP2-associated protein kinase 1 (Homo sapiens) (UniProt Q2M2I8); assay: Inhibition of AAK1 (unknown origin) at 0.1 uM relative to control
Chain of AP2-associated protein kinase 1 (Homo sapiens) (Q2M2I8 whole entry, looked up): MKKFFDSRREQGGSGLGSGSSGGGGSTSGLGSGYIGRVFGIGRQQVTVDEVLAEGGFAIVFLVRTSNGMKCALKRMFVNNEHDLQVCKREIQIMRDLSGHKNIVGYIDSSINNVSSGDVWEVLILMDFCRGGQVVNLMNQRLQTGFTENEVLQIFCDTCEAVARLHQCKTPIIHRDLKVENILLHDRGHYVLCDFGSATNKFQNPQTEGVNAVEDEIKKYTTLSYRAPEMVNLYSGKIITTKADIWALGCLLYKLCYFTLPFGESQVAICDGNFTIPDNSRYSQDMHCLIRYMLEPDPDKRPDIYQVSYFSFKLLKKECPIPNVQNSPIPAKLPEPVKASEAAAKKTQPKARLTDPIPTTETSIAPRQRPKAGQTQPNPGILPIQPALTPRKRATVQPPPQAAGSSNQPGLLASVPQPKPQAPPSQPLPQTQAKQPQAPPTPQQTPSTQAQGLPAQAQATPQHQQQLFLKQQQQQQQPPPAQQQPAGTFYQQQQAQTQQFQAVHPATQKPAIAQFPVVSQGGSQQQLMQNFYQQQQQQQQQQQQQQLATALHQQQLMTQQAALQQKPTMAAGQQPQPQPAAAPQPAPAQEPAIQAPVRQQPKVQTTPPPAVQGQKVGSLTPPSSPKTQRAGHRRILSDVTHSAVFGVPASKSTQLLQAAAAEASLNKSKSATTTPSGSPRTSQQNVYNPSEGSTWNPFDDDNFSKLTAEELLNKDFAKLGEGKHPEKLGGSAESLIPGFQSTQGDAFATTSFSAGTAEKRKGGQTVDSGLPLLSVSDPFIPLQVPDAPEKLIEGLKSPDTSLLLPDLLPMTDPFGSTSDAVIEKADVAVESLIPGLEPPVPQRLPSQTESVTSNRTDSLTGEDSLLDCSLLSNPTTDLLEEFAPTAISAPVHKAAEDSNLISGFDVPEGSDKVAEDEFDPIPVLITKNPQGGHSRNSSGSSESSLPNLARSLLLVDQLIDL

[12] = molecular target: T4, Interleukin-1 receptor-associated kinase 3 (Homo sapiens) (UniProt Q9Y616); assay: Inhibition of IRAK3 (unknown origin) at 0.1 uM relative to control
T4 sequence (whole entry): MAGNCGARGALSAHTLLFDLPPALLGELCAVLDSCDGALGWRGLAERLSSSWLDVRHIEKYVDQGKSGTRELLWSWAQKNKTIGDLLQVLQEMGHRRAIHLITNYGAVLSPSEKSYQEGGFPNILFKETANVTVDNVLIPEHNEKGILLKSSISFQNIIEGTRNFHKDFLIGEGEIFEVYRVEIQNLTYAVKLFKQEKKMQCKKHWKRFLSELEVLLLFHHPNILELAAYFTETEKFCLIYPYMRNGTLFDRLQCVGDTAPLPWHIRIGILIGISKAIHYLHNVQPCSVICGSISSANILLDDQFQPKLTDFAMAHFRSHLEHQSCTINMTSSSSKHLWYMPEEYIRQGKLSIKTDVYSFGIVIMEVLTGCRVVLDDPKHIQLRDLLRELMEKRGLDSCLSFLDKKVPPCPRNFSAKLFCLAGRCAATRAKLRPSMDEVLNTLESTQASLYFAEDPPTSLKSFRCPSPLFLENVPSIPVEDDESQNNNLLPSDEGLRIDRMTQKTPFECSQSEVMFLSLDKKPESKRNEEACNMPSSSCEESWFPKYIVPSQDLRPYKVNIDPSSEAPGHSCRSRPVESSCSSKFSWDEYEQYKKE

[13] = molecular target: T5, Myosin light chain kinase family member 4 (Homo sapiens) (UniProt Q86YV6); assay: Inhibition of MYLK4 (unknown origin) at 0.1 uM relative to control
T5 sequence (whole entry): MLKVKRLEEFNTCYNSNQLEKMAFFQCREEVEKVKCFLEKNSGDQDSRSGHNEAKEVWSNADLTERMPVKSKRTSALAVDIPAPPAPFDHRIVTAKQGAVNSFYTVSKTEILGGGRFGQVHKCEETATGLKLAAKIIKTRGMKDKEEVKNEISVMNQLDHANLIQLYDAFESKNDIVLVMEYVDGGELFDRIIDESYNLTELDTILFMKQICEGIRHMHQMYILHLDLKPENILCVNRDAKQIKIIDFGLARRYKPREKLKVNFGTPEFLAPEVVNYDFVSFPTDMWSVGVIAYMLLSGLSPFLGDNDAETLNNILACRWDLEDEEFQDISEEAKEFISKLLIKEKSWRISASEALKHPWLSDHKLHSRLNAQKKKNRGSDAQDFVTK

[14] = molecular target: Leucine-rich repeat serine/threonine-protein kinase 2 (Homo sapiens) (UniProt Q5S007); assay: Inhibition of full length LRRK2 (unknown origin) at 0.1 uM relative to control
[15] = test system: Saccharomyces cerevisiae; assay: Inhibition of Saccharomyces cerevisiae CDC7/DBF4 at 0.1 uM relative to control
[16] = molecular target: Leucine-rich repeat serine/threonine-protein kinase 2 (Homo sapiens) (UniProt Q5S007); assay: Inhibition of LRRK2 (unknown origin) at 0.1 uM relative to control
[17] = molecular target: Dual specificity protein kinase CLK4 (Homo sapiens) (UniProt Q9HAZ1); assay: Inhibition of CLK4 (unknown origin) at 0.1 uM relative to control

SMILES	IC50 ([1]; read-out: IC50) [nM]	IC50 ([1]; read-out: pIC50 (converted)) [nM]	inhibition [2]	IC50 ([3]; read-out: pIC50 (converted)) [nM]	IC50 ([4]; read-out: pIC50 (converted)) [nM]	IC50 ([5]; read-out: pIC50 (converted)) [nM]	IC50 [6] [nM]	IC50 [7] [µM]	IC50 [8] [nM]	inhibition [9]	further results
CC(C)NC(=O)c1ccc(-c2cnc(N)c(-c3ccc(C#N)cc3)c2)cc1	930	1260	Active	126	79.4	12.6	39.8	0.0251	39.8	–	–
CN(C)c1ncc(-c2ccc(O)cc2)cc1-c1ccc(S(C)(=O)=O)cc1	–	> 31600	inactive	20000	3980	15800	3980	7.94	6310	inactive	–
CS(=O)(=O)c1ccc(-c2cc(-c3ccc(O)cc3)cnc2N)cc1	470	–	Active	39.8	10	–	10	–	15.8	–	–
CC(C)NC(=O)c1ccc(-c2cnc(N(C)C)c(-c3ccc(C#N)cc3)c2)cc1	–	> 31600	inactive	25100	25100	20000	25100	50.1	63100	inactive	–

Continued, in another order:

IC50 ([1]; read-out: IC50) [nM]	IC50 ([1]; read-out: pIC50 (converted)) [nM]	inhibition [2]	IC50 ([3]; read-out: pIC50 (converted)) [nM]	IC50 ([4]; read-out: pIC50 (converted)) [nM]	IC50 ([5]; read-out: pIC50 (converted)) [nM]	IC50 [6] [nM]	IC50 [7] [µM]	IC50 [8] [nM]	inhibition [9]	SMILES	further results
–	–	–	200	158	158	–	–	–	–	Nc1ncnc2ccc(-c3ccnc(F)c3)nc12	IC50 ([3]; read-out: IC50): 150 to 200 nM; IC50 ([4]; read-out: IC50): 150 to 200 nM; IC50 ([5]; read-out: IC50): 150 to 200 nM
1130	–	Active	50.1	12.6	31.6	7.94	0.02	12.6	–	Nc1ncc(Br)c2ccc(-c3ccnc(F)c3)nc12	inhibition [10]: 99%; inhibition [11]: 95%; inhibition [12]: 90%; inhibition [13]: 73%; inhibition [14]: 61%; inhibition [15]: 56%; inhibition [16]: 54%; inhibition [17]: 51%
–	–	–	200	126	158	–	–	–	–	CC(C)(O)c1cnc(N)c2nc(-c3ccnc(F)c3)ccc12	–
–	> 31600	inactive	25100	15800	20000	5010	3.98	3980	inactive	Fc1cc(-c2ccc3ccncc3n2)ccn1	–

From ChEMBL document CHEMBL4433232, “Tool inhibitors and assays to interrogate the biology of the TRAF2 and NCK interacting kinase” (Bioorg Med Chem Lett, 2019)
